The values that follow come from patent US20090181075A1, “DROSPIRENONE CONTAINING TRANSDERMAL DRUG DELIVERY DEVICES AND METHODS OF DELIVERY THEREOF” (priority 2005, published 2009).

The series in a line: Drospirenone solubility in liquid excipients. The series is classed as physicochemical. To be noted: weight-weight basis. The protocol: The solubility of drospirenone in liquid excipients was obtained using the following test method. Drospirenone was incrementally added to excipient until it stopped dissolving. The saturated solution was then filtered through a 0.45 μm polytetrafluoroethylene filter to remove excess drug particles. The concentration of drospirenone was then analyzed for drug using conventional high performance liquid chromatography methods. The values are reported as the percent solubility on a weight-weight basis.

Consider `C[C@]12CCC(=O)C=C1[C@@H]1C[C@@H]1[C@H]1[C@@H]3[C@@H]4C[C@@H]4[C@@]4(CCC(=O)O4)[C@@]3(C)CC[C@@H]12` [drospirenone, 6β,7β,15β,16β-dimethylene-3-oxo-17α-pregn-4-ene-21,17-carbolactone], for which the solubility of drospirenone runs as follows: (in benzyl alcohol) 44.4%; (in benzyl lactate) 22.6%; (in glyceryl monooleate) 2.0%; (in lauryl alcohol) 1.0%; (in lauryl lactate) 1.4%; (in methyl lactate) 11.6%. For the setting “in methyl laurate”, this compound had a solubility of drospirenone of 0.6%.
